These results are taken from US20160280651A1, “COMPOUNDS THAT INDUCE ABA RESPONSES” (THE REGENTS OF THE UNIVERSITY OF CALIFORNIA, priority 2013, published 2016).

The structures appear in SMILES notation.

The subject of the experiment is soybean plants. Nature of the experiment: Soybean drought stress assay. The format is in vivo. The settings on record: 50 μM, aerosol every 3 days. The protocol:
FIG. 8A-FIG. 8B. Quinabactin confers drought stress tolerance to wild-type plants. (A) Effect of quinabactin on Arabidopsis drought tolerance. Two-week-old plants were subjected to drought stress by withholding water and were photographed after 12 days. During the drought period, plants were treated every 3 days with 25 μM compound. Plants were re-hydrated after 2 weeks drought treatment; the number of surviving plants (out of total number tested) for each treatment is shown next to each image. (B) Effects of quinabactin on soybean. Two-week-old plants were subjected to drought stress by withholding water and photographed after 8 days drought treatment. […]
Physiological assays were performed on Arabidopsis plants grown at 22±2° C. and relative humidity (RH) 45±10% under a 16/8-h light/dark cycle. […] 12 4-week old plants were sprayed per compound or control analyzed. After overnight pre-treatment with compounds, the aerial portions were detached from roots, and their fresh weight measured at 20 min intervals over a 2 hour time period. […] The leaf impressions were analyzed by light microscopy and stomatal apertures were determined from the pore widths using ImageJ 1.43v software (National Institutes of Health, USA). […] Pots were covered in Parafilm to so that the water loss measured was transpiration mediated. […]

For the compound `CCCN1C(=O)CCc2cc(NS(=O)(=O)Cc3ccc(C)cc3)ccc21` [LC66C6], the Drought stress tolerance result is listed as “confers drought stress tolerance similar to that conferred by treatment with (+)-ABA”.
